Here are results for 32 molecules from patent US20250171437A1 (Agios Pharmaceuticals,Inc., priority 2022, published 2025).

The target in the first assay is T1, human PAH with the R408W mutation (A375 R408W cells) (Homo sapiens, UniProt P00439, R408W).
T1 construct: expressed in transfected cells
T1 sequence (P00439 1-452 R408W): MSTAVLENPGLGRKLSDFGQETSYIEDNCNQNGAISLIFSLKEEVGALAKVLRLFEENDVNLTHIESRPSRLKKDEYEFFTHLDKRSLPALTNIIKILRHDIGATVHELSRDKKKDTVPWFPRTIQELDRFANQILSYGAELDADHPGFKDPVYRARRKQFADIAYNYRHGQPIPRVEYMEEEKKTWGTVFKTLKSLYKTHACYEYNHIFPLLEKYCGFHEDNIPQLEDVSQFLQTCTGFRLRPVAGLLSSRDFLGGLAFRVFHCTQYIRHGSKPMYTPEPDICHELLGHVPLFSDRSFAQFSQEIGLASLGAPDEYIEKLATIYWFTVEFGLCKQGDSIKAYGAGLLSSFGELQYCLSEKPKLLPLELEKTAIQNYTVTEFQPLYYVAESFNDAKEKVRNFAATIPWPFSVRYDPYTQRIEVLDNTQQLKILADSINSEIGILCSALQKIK
In words: Cell Based Phenylalanine Flux Assay. Conditions: A375 R408W cells; 24 hrs with compound, then 20 μM sepiapterin and 800 μM 13C9,15N-Phenylalanine for 4 hours; 13C-Tyrosine by LC-MS; average where tested multiple times. The essentials: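 Phenylalanine-to-tyrosine flux is measured in A375 cells carrying stable human R408W PAH. After 24 h compound exposure, 13C9,15N-Phe (800 μM) with sepiapterin (20 μM) is supplied for 4 h and media 13C-Tyr is read by LC-MS; AC50s are binned.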
Regarding `Cn1cc(-c2nc(C(F)F)c(C(=O)N3CCc4[nH]cnc4[C@@H]3c3nc4cccc(F)c4o3)o2)cn1` [Example 635, (R)-(4-(difluoromethyl)-2-(1-methyl-1H-pyrazol-4-yl)oxazol-5-yl)(4-(7-fluorobenzo[d]oxazol-2-yl)-6,7-dihydro-1H-imidazo[4,5-c]pyridin-5(4H)-yl)methanone], the AC50 (as a rule, the concentration giving half of the maximal activity seen) lay in the range of 0.5 to 1 µM.

`O=C(CC1(O)CCC1)N1CCc2[nH]cnc2[C@@H]1c1nc2cc(F)ccc2o1` [Example 56, (R)-1-(4-(5-fluorobenzo[d]oxazol-2-yl)-6,7-dihydro-1H-imidazo[4,5-c]pyridin-5(4H)-yl)-2-(1-hydroxycyclobutyl)ethanone]: the AC50 was 1 to 5 µM.

In the case of `COc1cccc2oc([C@H]3c4nc[nH]c4CCN3C(=O)c3nnc(-c4ccn(C)n4)o3)nc12` [Example 640, (R)-(4-(4-methoxybenzo[d]oxazol-2-yl)-6,7-dihydro-1H-imidazo[4,5-c]pyridin-5(4H)-yl)(5-(1-methyl-1H-pyrazol-3-yl)-1,3,4-oxadiazol-2-yl)methanone], the AC50 was 1 to 5 µM.

Regarding `COCc1ccc2c(C(=O)N3CCc4[nH]cnc4[C@H]3c3nc4cc(F)ccc4o3)cnn2c1` [Example 29, (S)-(4-(5-fluorobenzo[d]oxazol-2-yl)-6,7-dihydro-1H-imidazo[4,5-c]pyridin-5(4H)-yl)(6-(methoxymethyl)pyrazolo[1,5-a]pyridin-3-yl)methanone], the AC50 was 1 to 5 µM.

For the molecule `O=C(c1nnc(-c2ccccn2)o1)N1CCc2[nH]cnc2[C@@H]1c1nc2c(F)ccc(F)c2o1` [Example 519, (R)-(4-(4,7-difluorobenzo[d]oxazol-2-yl)-6,7-dihydro-1H-imidazo[4,5-c]pyridin-5(4H)-yl)(5-(pyridin-2-yl)-1,3,4-oxadiazol-2-yl)methanone], the AC50 is 0.5 to 1 µM.

For `O=C(c1ccnn1C(F)(F)F)N1CCc2[nH]cnc2[C@H]1c1nc2c(F)cccc2o1` [Example 293, (S)-(4-(4-fluorobenzo[d]oxazol-2-yl)-6,7-dihydro-1H-imidazo[4,5-c]pyridin-5(4H)-yl)(1-(trifluoromethyl)-1H-pyrazol-5-yl)methanone], the AC50 was at most 0.5 µM.

For the molecule `O=C(CC1CC(F)C1)N1CCc2[nH]cnc2[C@H]1c1nc2cc(F)ccc2o1` (stereo partly drawn) [Example 59, (S)-1-(4-(5-fluorobenzo[d]oxazol-2-yl)-6,7-dihydro-1H-imidazo[4,5-c]pyridin-5(4H)-yl)-2-(3-fluorocyclobutyl)ethanone], the AC50 was in the range of 0.5 to 1 µM.

Take `COCc1ccc2c(C(=O)N3CCc4[nH]cnc4[C@@H]3c3nc4cc(C)ccc4o3)cnn2c1` [Example 878, (R)-(6-(methoxymethyl)pyrazolo[1,5-a]pyridin-3-yl)(4-(5-methylbenzo[d]oxazol-2-yl)-6,7-dihydro-1H-imidazo[4,5-c]pyridin-5(4H)-yl)methanone]: the AC50 was at least 5 µM.

Turning to `COc1cccc2oc([C@H]3c4nc[nH]c4CCN3C(=O)c3nc(C(F)F)nn3C)nc12` [Example 602, (R)-(3-(difluoromethyl)-1-methyl-1H-1,2,4-triazol-5-yl)(4-(4-methoxybenzo[d]oxazol-2-yl)-6,7-dihydro-1H-imidazo[4,5-c]pyridin-5(4H)-yl)methanone], the AC50 fell in the range of 0.5 to 1 µM.

Consider `CC(O)c1nc(Br)c(C(=O)N2CCc3[nH]cnc3[C@H]2c2nc3cc(F)ccc3o2)o1` (single isomer, unassigned) [Example 226], for which the AC50 is at most 0.5 µM.

Turning to `O=C(c1ocnc1C(F)F)N1CCc2[nH]cnc2[C@@H]1c1nc2cc(Br)cc(F)c2o1` [Example 574, (R)-(4-(5-bromo-7-fluorobenzo[d]oxazol-2-yl)-6,7-dihydro-1H-imidazo[4,5-c]pyridin-5(4H)-yl)(4-(difluoromethyl)oxazol-5-yl)methanone], the concentration at half-maximal activity (AC50) is at most 0.5 µM.

Regarding `O=C(c1nnc(-c2cnn(C(F)F)c2)o1)N1CCc2[nH]cnc2[C@@H]1c1nc2ccccc2o1` [Example 842, (R)-(4-(benzo[d]oxazol-2-yl)-6,7-dihydro-1H-imidazo[4,5-c]pyridin-5(4H)-yl)(5-(1-(difluoromethyl)-1H-pyrazol-4-yl)-1,3,4-oxadiazol-2-yl)methanone], the AC50 is 1 to 5 µM.

On to `Cn1nc(C2CC2)nc1C(=O)N1CCc2[nH]cnc2[C@H]1c1nc2cccc(F)c2o1` [Example 497, (S)-(3-cyclopropyl-1-methyl-1H-1,2,4-triazol-5-yl)(4-(7-fluorobenzo[d]oxazol-2-yl)-6,7-dihydro-1H-imidazo[4,5-c]pyridin-5(4H)-yl)methanone], for which the AC50 lay in the range of 1 to 5 µM.

On to “(R)-(3-chloro-1-methyl-1H-1,2,4-triazol-5-yl)(4-(6-fluorobenzo[d]oxazol-2-yl)-6,7-dihydro-1H-imidazo[4,5-c]pyridin-5(4H)-yl)methanone [Example 344]”, for which the AC50 lay in the range of 1 to 5 µM.

`Cc1ncoc1C(=O)N1Cc2[nH]cnc2[C@H]1c1nc2ccccc2o1` [Example 941, (S)-(4-(benzo[d]oxazol-2-yl)-4,6-dihydropyrrolo[3,4-d]imidazol-5(1H)-yl)(4-methyloxazol-5-yl)methanone]: the concentration at half-maximal activity (AC50) was in the range of 1 to 5 µM.

On to `Cc1cccc2nc([C@@H]3c4nc[nH]c4CCN3C(=O)c3nc(C(F)(F)F)nn3C)oc12` [Example 685, (S)-(1-methyl-3-(trifluoromethyl)-1H-1,2,4-triazol-5-yl)(4-(7-methylbenzo[d]oxazol-2-yl)-6,7-dihydro-1H-imidazo[4,5-c]pyridin-5(4H)-yl)methanone], for which the AC50 fell in the range of 0.5 to 1 µM.

In the case of `O=C(c1cnn2cc(N3CCC4(CC3)CC4)ccc12)N1CCc2[nH]cnc2[C@H]1c1nc2cccc(F)c2o1` [Example 395, (S)-(6-(6-azaspiro[2.5]octan-6-yl)pyrazolo[1,5-a]pyridin-3-yl)(4-(7-fluorobenzo[d]oxazol-2-yl)-6,7-dihydro-1H-imidazo[4,5-c]pyridin-5(4H)-yl)methanone], the AC50 is 0.5 to 1 µM.

For `CC(C)(O)c1nc(C2CC2)c(C(=O)N2CCc3[nH]cnc3[C@H]2c2nc3cc(F)ccc3o2)o1` [Example 557, (S)-(4-cyclopropyl-2-(2-hydroxypropan-2-yl)oxazol-5-yl)(4-(5-fluorobenzo[d]oxazol-2-yl)-6,7-dihydro-1H-imidazo[4,5-c]pyridin-5(4H)-yl)methanone], the AC50 is at most 0.5 µM.

Take `O=C(c1cnn2cc(N3CCC(F)CC3)ccc12)N1CCc2[nH]cnc2[C@H]1c1nc2c(F)cccc2o1` [Example 477, (S)-(4-(4-fluorobenzo[d]oxazol-2-yl)-6,7-dihydro-1H-imidazo[4,5-c]pyridin-5(4H)-yl)(6-(4-fluoropiperidin-1-yl)pyrazolo[1,5-a]pyridin-3-yl)methanone]: the AC50 was at most 0.5 µM.

For the molecule `CC(C)(O)c1ncc(C(=O)N2CCc3[nH]cnc3[C@H]2c2nc3c(F)cccc3o2)o1` [Example 893, (S)-(4-(4-fluorobenzo[d]oxazol-2-yl)-6,7-dihydro-1H-imidazo[4,5-c]pyridin-5(4H)-yl)(2-(2-hydroxypropan-2-yl)oxazol-5-yl)methanone], the AC50 lay in the range of 1 to 5 µM.

For `CC(C)(O)c1nc(C(F)(F)F)c(C(=O)N2CCc3[nH]cnc3[C@H]2c2nc3cccc(F)c3o2)o1` [Example 253, (S)-(4-(7-fluorobenzo[d]oxazol-2-yl)-6,7-dihydro-1H-imidazo[4,5-c]pyridin-5(4H)-yl)(2-(2-hydroxypropan-2-yl)-4-(trifluoromethyl)oxazol-5-yl)methanone], the AC50 is at most 0.5 µM.

With `O=C(c1cnn2cc(N3CCC(O)CC3)ccc12)N1CCc2[nH]cnc2[C@@H]1c1nc2c(F)ccc(F)c2o1` [Example 896, (R)-(4-(4,7-difluorobenzo[d]oxazol-2-yl)-6,7-dihydro-1H-imidazo[4,5-c]pyridin-5(4H)-yl)(6-(4-hydroxypiperidin-1-yl)pyrazolo[1,5-a]pyridin-3-yl)methanone], the AC50 is at least 5 µM.

Consider `O=C(c1oc(C2(O)CC2)nc1C(F)F)N1CCc2[nH]cnc2[C@H]1c1nc2cccc(F)c2o1` [Example 214, (S)-(4-(difluoromethyl)-2-(1-hydroxycyclopropyl)oxazol-5-yl)(4-(7-fluorobenzo[d]oxazol-2-yl)-6,7-dihydro-1H-imidazo[4,5-c]pyridin-5(4H)-yl)methanone], for which the AC50 was at most 0.5 µM.

Staying with this assay, now noted: A375 cells expressing R408W PAH; 24 hrs with compound, then 20 μM sepiapterin and 800 μM 13C9,15N-Phenylalanine for 4 hours; 13C-Tyrosine by LC-MS; average where tested multiple times.
`COc1ccc2oc(C3c4nc[nH]c4CCN3C(=O)c3cnc(C(C)(C)O)o3)nc2c1` (centres unmarked): the AC50 is at least 5 µM.

Take `CC(C)(C)OC(=O)N1CCN(c2ccc3c(C(=O)N4CCc5[nH]cnc5C4c4nc5cc(F)ccc5o4)cnn3c2)CC1` (centres unmarked): the AC50 fell in the range of 1 to 5 µM.

For `CN(C)CCOc1ccc2c(C(=O)N3CCc4[nH]cnc4C3c3nc4cc(F)ccc4o3)cnn2c1` (centres unmarked), the AC50 is 1 to 5 µM.

For the molecule `Cc1cccc2nc(C3c4nc[nH]c4CCN3C(=O)c3ccn(-c4ccccn4)n3)oc12` (centres unmarked), the AC50 fell in the range of 1 to 5 µM.

`O=C(C1CC1)N1CCc2[nH]cnc2C1c1nc2cc(F)ccc2o1` (centres unmarked): the AC50 lay within 1 to 5 µM.

For the molecule `Cc1nc(N2CCC(F)CC2)oc1C(=O)N1CCc2[nH]cnc2C1c1nc2cc(F)ccc2o1` (centres unmarked), the AC50 is at least 5 µM.

In the case of `O=C(CCc1cnco1)N1CCc2[nH]cnc2C1c1nc2c(F)cccc2o1` (centres unmarked), the AC50 lay within 1 to 5 µM.

In the case of `Cc1cccc2nc(C3c4nc[nH]c4CCN3C(=O)c3ccnn3-c3ccccn3)oc12` (centres unmarked), the AC50 was in the range of 1 to 5 µM.

Regarding `CC(C)(O)c1nc(C(=O)N2CCc3[nH]cnc3C2c2nc3c(F)cccc3o2)no1` (centres unmarked), the AC50 was at least 5 µM.
